Experimental findings from PMC6116703, “Ethenesulfonyl fluoride derivatives as telomerase inhibitors: structure-based design, SAR, and anticancer evaluation in vitro” (Journal of Enzyme Inhibition and Medicinal Chemistry, 2018) are described below.

Like-named read-outs stand apart in the source and are kept apart here. Some results are limits rather than exact numbers.

One assay concerns the target T1, telomerase (Homo sapiens, UniProt O14746).
T1 construct: endogenous in cells; host or cells: A375 human melanoma cells
In words: Telomerase activity TRAP-PCR-ELISA assay (A375 cell extract). Format: biochemical. On the procedure: Thirty-six compounds were tested in a search for inhibitors of telomerase activity using the TRAP-PCR-ELISA assay. In detail, the A375 cells were firstly maintained in RPMI 1640 buffer (Hyclone, Miami, FL), supplemented with 10% fetal bovineserum (GIBCO, New York, NY), streptomycin (0.1 mg/mL) and penicillin (100 IU/mL) at 37 °C in a humidified atmosphere containing 5% CO2. After trypsinisation, 5 × 10^4 cultured cells in logarithmic growth were seeded into T25 flasks (Corning, New York, NY) and cultured to allow to adherence. […] After 24 h treatment, the cells were harvested by cell scraper orderly followed by washing once with PBS. The cells were lysed in 150 µL RIPA cell lysis buffer (Santa Cruz, Santa Cruz, CA), and incubated on ice for 30 min. The cellular supernatants were obtained via centrifugation at 12,000g for 20 min at 4 °C and stored at –80 °C. The TRAP-PCR-ELISA assay was performed using a telomerase detection kit (Roche, Basel, Switzerland) according to the manufacturer’s protocol. In brief, 2 µL of cell extracts were mixed with 48 µL TRAP reaction mixtures. TRAP primers and Taq polymerase are incubated at 25 °C for 30 min. PCR was then initiated at 94 °C, 120 s for predenaturation and performed using 35 cycles each consisting of 94 °C for 30 s, 50 °C for 30 s, 72 °C for 90 s. Then 20 µL of PCR products were hybridised to a digoxigenin (DIG)-labelled telomeric repeat specific detection probe. And the PCR products were immobilised via the biotin-labelled primer to a streptavidin-coated microtiter plate subsequently. The immobilised DNA fragments were detected with a peroxidase-conjugated anti-DIG antibody and visualised following the addition of the stop regent. The microtitre plate was assessed on TECAN Infinite M200 microplate reader (Mannedorf, Switzerland) at a wavelength of 490 nm, and the final value were presented as mean ± SD[23].

Assay [1] has as its system human breast cancer cell MDA-MB-231. In words: Cell proliferation (MTT) assay, MDA-MB-231. Type of assay: cell-based. To be noted: Homo sapiens, MDA-MB-231, 48 h, read-out: IC50 MDA-MB-231, antiproliferative, MTT, 48 h exposure. On the procedure:
(§1) The antiproliferative activities evaluation was conducted by using a modified procedure as described in the literature. Briefly, target tumour cells were grown to log phase in RPMI 1640 medium supplemented with 10% fetal bovine serum. After diluting to 3 × 10^4 cells mL^−1 with the complete medium, 100 µL of the obtained cell suspension was added to each well of 96-well culture plates. The subsequent incubation was performed at 37 °C, 5% CO2 atmosphere for 24 h before subjecting to antiproliferation assessment. The tested samples at pre-set concentrations were added to six wells with Doxorubicin (AMD) co-assayed as a positive reference. After 48 h of exposure period, 25 µL of PBS containing 2.5 mg·mL^−1 of MTT was added to each well. After 4 h, the medium was replaced by 150 µL DMSO to dissolve the purple formazan crystals produced. The absorbance at 570 nm of each well was measured using an ELISA plate reader. The data represented the mean of three experiments in triplicate and were expressed as means ± SD using Student’s test.

The subject of a further assay is human melanoma cell A375. In words: Cell proliferation (MTT) assay, A375. Type of assay: cell-based. Here is the method:
as §1

Assay [2] deals with gastric mucosa cell (GES-1). Description: Proliferative inhibition assay of human normal cell GES-1 (MTT). Format: cell-based. On the procedure:
as §1
(§2) In order to determine the selective cancer cell toxicity of some title compounds. We subsequently conducted a proliferative inhibition assay with human normal liver cell (L-02) and gastric mucosa cell (GES-1).

Assay [3] concerns human normal liver cell (L-02). In words: Proliferative inhibition assay of human normal cell L-02 (MTT). Type of assay: cell-based. To be noted: normal liver cells. On the procedure:
as §1, §2

In assay [4] the test system is human hepatoma cell SMMC-7721. Description: Cell proliferation (MTT) assay, SMMC-7721. To be noted: Homo sapiens, SMMC-7721, 48 h, read-out: IC50 SMMC-7721. Type of assay: cell-based. Here is the method: as §1
For assay [5], the system named is human gastric cancer cells SGC-7901. In words: Cell proliferation (MTT) assay, SGC-7901. To be noted: Homo sapiens, SGC-7901, 48 h, read-out: IC50 SGC-7901. Type of assay: cell-based. On the procedure:
as §1

The test system of assay [6] is human gastric cancer cells MGC-803. In words: Cell proliferation (MTT) assay, MGC-803. To be noted: Homo sapiens, MGC-803, 48 h, read-out: IC50 MGC-803. Type of assay: cell-based. On the procedure: as §1
The mark [7] stands for this setting: IC50 inhibitory activity against telomerase, TRAP-PCR-ELISA, A375 cells, 24 h treatment.
[8] abbreviates: Homo sapiens, A-375, 48 h, read-out: IC50 A375, antiproliferative, MTT, 48 h exposure.
Where [9] appears, read: Homo sapiens, GES1, normal gastric mucosa cells.
Where [10] appears, read: read-out: IC50 A375, antiproliferative, MTT, 48 h exposure.

T1 sequence (O14746 whole entry): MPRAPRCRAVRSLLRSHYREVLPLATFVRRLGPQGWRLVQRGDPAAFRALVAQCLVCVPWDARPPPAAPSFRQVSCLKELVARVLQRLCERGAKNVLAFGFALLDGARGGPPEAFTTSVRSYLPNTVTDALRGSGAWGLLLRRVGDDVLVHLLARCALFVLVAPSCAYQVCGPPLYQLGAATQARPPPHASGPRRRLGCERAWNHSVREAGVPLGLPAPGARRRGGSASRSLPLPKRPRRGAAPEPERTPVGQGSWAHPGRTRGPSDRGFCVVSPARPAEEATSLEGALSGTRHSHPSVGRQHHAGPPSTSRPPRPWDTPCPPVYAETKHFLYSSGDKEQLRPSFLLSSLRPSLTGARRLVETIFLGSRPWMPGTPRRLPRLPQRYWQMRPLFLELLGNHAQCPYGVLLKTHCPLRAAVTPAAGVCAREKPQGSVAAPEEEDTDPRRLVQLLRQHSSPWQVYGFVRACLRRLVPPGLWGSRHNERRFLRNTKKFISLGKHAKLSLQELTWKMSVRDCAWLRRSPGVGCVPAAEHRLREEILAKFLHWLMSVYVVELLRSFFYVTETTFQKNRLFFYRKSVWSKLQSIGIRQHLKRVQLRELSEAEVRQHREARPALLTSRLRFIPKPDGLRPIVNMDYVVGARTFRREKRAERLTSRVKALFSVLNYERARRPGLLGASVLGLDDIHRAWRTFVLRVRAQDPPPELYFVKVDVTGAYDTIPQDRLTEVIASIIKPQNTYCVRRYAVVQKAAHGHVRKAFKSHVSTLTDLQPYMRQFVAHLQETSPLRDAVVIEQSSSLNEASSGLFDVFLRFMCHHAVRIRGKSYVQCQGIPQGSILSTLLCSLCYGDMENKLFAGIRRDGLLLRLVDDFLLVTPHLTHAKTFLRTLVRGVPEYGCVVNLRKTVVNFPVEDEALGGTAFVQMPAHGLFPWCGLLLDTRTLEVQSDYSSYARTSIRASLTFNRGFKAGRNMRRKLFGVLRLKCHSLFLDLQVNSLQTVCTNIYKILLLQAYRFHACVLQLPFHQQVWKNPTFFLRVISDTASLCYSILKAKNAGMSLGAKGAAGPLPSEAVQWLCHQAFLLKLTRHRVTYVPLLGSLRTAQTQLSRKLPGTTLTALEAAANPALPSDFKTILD

In general, IC50 refers to the point on the concentration scale where inhibition reaches its midpoint. For the compound `O=S(=O)(F)/C=C/c1ccccc1` [Compound 1], the IC50 on telomerase (setting [7]) amounted to 2.41 ± 0.51 µM; in assay [1], 8.67 ± 0.61 µM; with human melanoma cell A375 (setting [8]), 5.21 ± 0.39 µM; in assay [2] (setting [9]), 1450 ± 170 µM; in assay [3] (Homo sapiens), 1970 ± 200 µM.

Take `O=S(=O)(F)/C=C/c1ccc(-c2ccccc2)cc1` [Compound 5]: the IC50 amounted to 0.71 ± 0.28 µM against telomerase (setting [7]); 8.39 ± 0.89 µM in assay [1]; 4.05 ± 0.2 µM in assay [4]; 5.84 ± 0.33 µM in the assay with human melanoma cell A375 (setting [8]); 32.9 ± 1.85 µM in assay [5]; 2000 ± 250 µM in assay [2] (setting [9]). The compound further came in with an IC50 in assay [3] (Homo sapiens) of 1330 ± 150 µM. Also, the “telomerase potency relative to positive control staurosporine” value at telomerase (ratio of telomerase IC50 values vs staurosporine) was 12 times.

As to `O=Cc1ccc(/C=C/S(=O)(=O)F)cc1` [Compound 15], the IC50 was determined as 1.87 ± 0.41 µM against telomerase (setting [7]); 3.64 ± 0.22 µM in assay [1]; 13.1 ± 0.7 µM with human melanoma cell A375 (setting [8]); 2500 ± 220 µM in assay [2] (setting [9]); 2110 ± 190 µM in assay [3] (Homo sapiens).

For the compound `CC(=O)c1ccccc1/C=C/S(=O)(=O)F` [Compound 25], the “IC50 inhibitory activity against telomerase” value against telomerase (TRAP-PCR-ELISA, A375 cells, 24 h treatment) is “no”. Besides, the IC50 in assay [2] (setting [9]) turned out to be 2800 ± 310 µM; in assay [3] (Homo sapiens) it was 2450 ± 250 µM.

For the compound `O=S(=O)(F)/C=C/c1ccc2ccccc2c1` [Compound 31], the IC50 against telomerase (setting [7]) is 0.81 ± 0.07 µM; in assay [1] it was 24.1 ± 1.18 µM; in assay [4], 33.5 ± 0.88 µM; in the assay on human melanoma cell A375 (setting [8]), roughly 3 µM; in the assay with human melanoma cell A375 (setting [10]) it was 3.49 ± 0.2 µM; in assay [2] (setting [9]) it was 1650 ± 180 µM. In assay [3] (Homo sapiens), this compound displayed an IC50 of 1410 ± 100 µM.

As for `Cc1ccc(S(=O)(=O)n2c3ccccc3c3cc(/C=C/S(=O)(=O)F)ccc32)cc1` [Compound 46], the IC50 at telomerase (read-out: IC50 inhibitory activity against telomerase, TRAP-PCR-ELISA, A375 cells, 24 h treatment) is 1.12 ± 0.27 µM; in assay [4] it was 5.37 ± 0.11 µM; in the assay with human melanoma cell A375 (setting [8]), 1.25 ± 0.07 µM; in assay [2] (setting [9]), 1820 ± 110 µM; in assay [3] (Homo sapiens) it was 2060 ± 180 µM.

As for `O=S(=O)(F)/C=C/C=C/c1ccc(/C=C/S(=O)(=O)F)cc1` [Compound 57, (1E,3E)-4-(4-((E)-2-(fluorosulfonyl)vinyl)phenyl)buta-1,3-diene-1-sulfonyl fluoride], the IC50 was 0.97 ± 0.12 µM at telomerase (setting [7]); 3.22 ± 0.18 µM in assay [1]; roughly 3 µM in the assay on human melanoma cell A375 (setting [8]); 1.58 ± 0.06 µM with human melanoma cell A375 (setting [10]); less than 2000 µM in assay [2] (setting [9]); 2190 ± 180 µM in assay [2] (normal gastric mucosa cells). In addition, the IC50 in assay [3] (Homo sapiens) was less than 2000 µM; in assay [3] it was 2010 ± 160 µM.

As for `O=S(=O)(F)/C=C/c1cccc(/C=C/S(=O)(=O)F)c1` [Compound 70], the IC50 against telomerase (setting [7]) is 1.01 ± 0.13 µM; in assay [6], 3.15 ± 0.27 µM; in assay [1] it was 4.22 ± 0.2 µM; in assay [4], 3 ± 0.18 µM; with human melanoma cell A375 (setting [8]), roughly 3 µM; with human melanoma cell A375 (setting [10]), 3.09 ± 0.19 µM. The half-inhibitory concentration (IC50) in assay [5] is 5.38 ± 0.3 µM.

In the case of `O=S(=O)(F)/C=C/c1cccc(-c2ccccc2)c1` [Compound 75], the IC50 against telomerase (setting [7]) turned out to be 4.4 ± 2 µM; in assay [1], 21.3 ± 1.04 µM; in assay [4], 32.1 ± 1.02 µM; in the assay with human melanoma cell A375 (setting [8]), 9.27 ± 0.91 µM; in assay [5], 21.9 ± 0.61 µM; in assay [2] (setting [9]), 1890 ± 170 µM. Further, half-maximal inhibition in assay [3] (Homo sapiens) (IC50) was put at 2440 ± 220 µM.
